Consider 59 molecules from ChEMBL document CHEMBL4706647, “Development and optimization of halogenated vinyl sulfones as Nrf2 activators for the treatment of Parkinson's disease” (Eur J Med Chem, 2021).

pEC50, pIC50: −log10 of the molar value. Where only a bound is given, the exact number is not on record here.

The target in the first data set is CYP2C9 (Homo sapiens, UniProt P11712). The data set can be described thus: Inhibition of CYP2C9 (unknown origin) assessed as residual activity. Format: ADME.
Sequence of CYP2C9 (P11712 whole entry): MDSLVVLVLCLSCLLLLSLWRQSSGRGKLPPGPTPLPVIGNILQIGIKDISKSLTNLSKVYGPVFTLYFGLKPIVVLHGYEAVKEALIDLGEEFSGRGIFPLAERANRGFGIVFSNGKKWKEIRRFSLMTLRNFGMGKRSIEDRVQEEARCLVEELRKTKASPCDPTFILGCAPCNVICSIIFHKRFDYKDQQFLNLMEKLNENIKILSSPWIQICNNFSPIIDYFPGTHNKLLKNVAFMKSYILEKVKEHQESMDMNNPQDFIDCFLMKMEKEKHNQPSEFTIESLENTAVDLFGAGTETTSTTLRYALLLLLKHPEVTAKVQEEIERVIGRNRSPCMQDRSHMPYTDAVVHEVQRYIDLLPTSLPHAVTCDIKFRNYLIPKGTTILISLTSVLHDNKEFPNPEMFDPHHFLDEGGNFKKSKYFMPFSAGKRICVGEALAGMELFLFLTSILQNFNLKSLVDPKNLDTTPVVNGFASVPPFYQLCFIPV
Details: not given
`COc1ccccc1S(=O)(=O)/C=C/c1ccccc1Cl`: the activity was 100%.

A further data set has as its target T1, Nuclear factor erythroid 2-related factor 2 (Homo sapiens, UniProt Q16236).
T1 sequence (Q16236 whole entry): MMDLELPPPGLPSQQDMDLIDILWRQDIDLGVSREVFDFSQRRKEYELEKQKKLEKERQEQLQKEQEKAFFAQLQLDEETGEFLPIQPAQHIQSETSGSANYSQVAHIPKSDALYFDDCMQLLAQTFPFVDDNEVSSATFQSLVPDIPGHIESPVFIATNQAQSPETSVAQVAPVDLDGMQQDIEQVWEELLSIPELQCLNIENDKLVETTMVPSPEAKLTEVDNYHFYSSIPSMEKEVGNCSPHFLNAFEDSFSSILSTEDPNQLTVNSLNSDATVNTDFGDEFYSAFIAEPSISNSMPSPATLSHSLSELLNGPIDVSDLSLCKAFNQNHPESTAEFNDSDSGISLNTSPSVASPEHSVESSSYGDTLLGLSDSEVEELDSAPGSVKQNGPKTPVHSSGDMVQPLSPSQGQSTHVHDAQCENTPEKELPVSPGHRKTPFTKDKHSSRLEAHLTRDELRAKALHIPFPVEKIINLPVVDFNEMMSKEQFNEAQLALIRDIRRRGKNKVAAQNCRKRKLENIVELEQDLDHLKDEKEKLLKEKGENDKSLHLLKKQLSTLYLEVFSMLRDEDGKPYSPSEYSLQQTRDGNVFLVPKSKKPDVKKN
Description: Activation of Nrf2 (unknown origin) expressed in human U2OS cells co-expressing Keap1 assessed as increase in Nrf2 nuclear translocation incubated for 6 hrs under dark condition by pathhunter assay. Type of data set: cell-based.
Details: not given
The term pEC50 denotes the EC50 on a negative log10 scale, so that one unit is a factor of ten. As to `O=S(=O)(/C=C/c1cccc(Cl)n1)c1ccccc1F`, the pEC50 is 6.05.

`O=S(=O)(/C=C/c1ccccn1)c1ccc(F)cc1`: the pEC50 was 5.51.

Take `O=S(=O)(/C=C/c1ncccc1F)c1ccc(Cl)cc1`: the pEC50 was 6.54.

In the case of `O=S(=O)(/C=C\c1ccc(Cl)nc1)c1cccc(Cl)c1`, the negative logarithm of the EC50 (pEC50) is 5.47.

In the case of `O=S(=O)(/C=C/c1ccncc1)c1cccc(F)c1`, the pEC50 is 6.02.

With `O=S(=O)(/C=C\c1ccc(Cl)nc1)c1cccc(F)c1`, the pEC50 is 6.02.

Regarding `O=S(=O)(/C=C\c1ncccc1Cl)c1cccc(Cl)c1`, the pEC50 is 6.54.

Regarding `O=S(=O)(/C=C/c1ncccc1F)c1ccccc1F`, the pEC50 was 6.75.

Regarding `O=S(=O)(/C=C/c1cccnc1Cl)c1ccc(Cl)cc1`, the pEC50 is 6.52.

In the case of `O=S(=O)(/C=C/c1cccnc1Cl)c1cccc(F)c1`, the pEC50 was 6.48.

Turning to `O=S(=O)(/C=C/c1ccc(Cl)nc1)c1ccc(Cl)cc1`, the pEC50 is less than 5.00.

Regarding `O=S(=O)(/C=C/c1cccc(Cl)n1)c1cccc(Cl)c1`, the negative logarithm of the EC50 (pEC50) is 5.97.

For the molecule `O=S(=O)(/C=C/c1ccc(Cl)nc1)c1ccc(F)cc1`, the pEC50 was less than 5.00.

With `O=S(=O)(/C=C\c1ncccc1Cl)c1ccccc1F`, the pEC50 was 5.99.

Consider `O=S(=O)(/C=C\c1ncccc1Cl)c1ccccc1Cl`, for which the pEC50 was 5.96.

`O=S(=O)(/C=C/c1ccc(Cl)cn1)c1ccc(F)cc1`: the pEC50 is 5.36.

Consider `O=S(=O)(/C=C/c1cccnc1)c1ccccc1F`, for which the pEC50 was 5.16.

For `O=S(=O)(/C=C/c1cccnc1Cl)c1ccc(F)cc1`, the pEC50 was 6.47.

Take `O=S(=O)(/C=C/c1cccnc1)c1ccccc1Cl`: the pEC50 is 5.55.

With `O=S(=O)(/C=C\c1cccnc1Cl)c1ccccc1Cl`, the pEC50 is 6.42.

With `O=S(=O)(/C=C\c1cccnc1Cl)c1ccccc1F`, the pEC50 is 5.47.

`O=S(=O)(/C=C/c1ncccc1Cl)c1ccc(Cl)cc1`: the pEC50 is 7.19.

Consider `O=S(=O)(/C=C/c1ccc(Cl)cn1)c1ccc(Cl)cc1`, for which the negative-log EC50 (pEC50) is 5.50.

With `O=S(=O)(/C=C/c1ccc(Cl)nc1)c1ccccc1F`, the pEC50 was 5.59.

As to `O=S(=O)(/C=C/c1ncccc1F)c1ccccc1Cl`, the negative logarithm of the EC50 (pEC50) was 6.91.

Consider `O=S(=O)(/C=C\c1ncccc1F)c1ccccc1Cl`, for which the pEC50 was 6.23.

With `O=S(=O)(/C=C/c1ccccn1)c1ccccc1F`, the pEC50 is 5.98.

Take `O=S(=O)(/C=C/c1ncccc1F)c1ccc(F)cc1`: the pEC50 was 6.27.

As for `O=S(=O)(/C=C/c1ncccc1Cl)c1ccc(F)cc1`, the pEC50 is 6.64.

For the molecule `O=S(=O)(/C=C/c1ncccc1F)c1cccc(Cl)c1`, the pEC50 was 6.70.

With `O=S(=O)(/C=C/c1ccccn1)c1cccc(Cl)c1`, the pEC50 was 5.85.

As to `O=S(=O)(/C=C/c1ccncc1)c1ccccc1F`, the pEC50 is 6.12.

As to `O=S(=O)(/C=C/c1ccc(Cl)nc1)c1cccc(Cl)c1`, the pEC50 is 5.66.

Consider `O=S(=O)(/C=C/c1ccccn1)c1ccc(Cl)cc1`, for which the pEC50 was 5.76.

Consider `O=S(=O)(/C=C/c1ccc(Cl)nc1)c1cccc(F)c1`, for which the pEC50 is 5.31.

For the molecule `O=S(=O)(/C=C/c1ncccc1Cl)c1ccccc1F`, the pEC50 is 7.52.

`O=S(=O)(/C=C/c1ccc(Cl)cn1)c1cccc(F)c1`: the pEC50 is 5.60.

Turning to `O=S(=O)(/C=C/c1ccc(Cl)nc1)c1ccccc1Cl`, the pEC50 was 5.79.

On to `O=S(=O)(/C=C/c1cccnc1Cl)c1cccc(Cl)c1`, for which the negative-log EC50 (pEC50) is 6.67.

As to `O=S(=O)(/C=C/c1ccccn1)c1cccc(F)c1`, the pEC50 was 5.77.

`O=S(=O)(/C=C/c1cccc(Cl)n1)c1ccc(Cl)cc1`: the pEC50 was 5.84.

Consider `O=S(=O)(/C=C\c1cccc(Cl)n1)c1ccccc1Cl`, for which the pEC50 was 6.83.

On to `O=S(=O)(/C=C/c1ccncc1)c1ccccc1Cl`, for which the pEC50 is 6.11.

On to `O=S(=O)(/C=C/c1ncccc1Cl)c1cccc(Cl)c1`, for which the negative-log EC50 (pEC50) was 7.34.

In the case of `O=S(=O)(/C=C/c1ccncc1)c1cccc(Cl)c1`, the pEC50 is 6.28.

`O=S(=O)(/C=C/c1ccc(Cl)cn1)c1ccccc1Cl`: the negative-log EC50 (pEC50) was 5.53.

For `O=S(=O)(/C=C/c1ccccn1)c1ccccc1Cl`, the pEC50 was 6.21.

As to `O=S(=O)(/C=C/c1cccnc1Cl)c1ccccc1F`, the negative logarithm of the EC50 (pEC50) was 6.66.

With `O=S(=O)(/C=C/c1ccc(Cl)cn1)c1ccccc1F`, the negative-log EC50 (pEC50) is 5.98.

For `O=S(=O)(/C=C\c1ncccc1F)c1ccccc1F`, the pEC50 is 6.32.

As for `O=S(=O)(/C=C/c1cccc(Cl)n1)c1ccc(F)cc1`, the pEC50 is 5.55.

For the molecule `O=S(=O)(/C=C/c1ncccc1F)c1cccc(F)c1`, the pEC50 was 6.32.

Turning to `O=S(=O)(/C=C\c1ncccc1Cl)c1ccc(Cl)cc1`, the pEC50 is 5.76.

With `O=S(=O)(/C=C/c1cccnc1Cl)c1ccccc1Cl`, the pEC50 was 6.72.

As for `O=S(=O)(/C=C/c1cccnc1)c1cccc(Cl)c1`, the pEC50 was 5.45.

Consider `O=S(=O)(/C=C\c1cccnc1)c1cccc(F)c1`, for which the pEC50 was 5.32.

In the case of `O=S(=O)(/C=C\c1ncccc1F)c1cccc(Cl)c1`, the pEC50 was 6.60.

Consider `O=S(=O)(/C=C/c1ccc(Cl)cn1)c1cccc(Cl)c1`, for which the pEC50 was 5.82.

The target of the next data set is Voltage-gated inwardly rectifying potassium channel KCNH2 (Homo sapiens, UniProt Q12809). The data set can be described thus: Inhibition of fluorescence tracer red binding to human ERG measured after 4 hrs by fluorescence polarization assay.
Sequence of Voltage-gated inwardly rectifying potassium channel KCNH2 (Q12809 whole entry): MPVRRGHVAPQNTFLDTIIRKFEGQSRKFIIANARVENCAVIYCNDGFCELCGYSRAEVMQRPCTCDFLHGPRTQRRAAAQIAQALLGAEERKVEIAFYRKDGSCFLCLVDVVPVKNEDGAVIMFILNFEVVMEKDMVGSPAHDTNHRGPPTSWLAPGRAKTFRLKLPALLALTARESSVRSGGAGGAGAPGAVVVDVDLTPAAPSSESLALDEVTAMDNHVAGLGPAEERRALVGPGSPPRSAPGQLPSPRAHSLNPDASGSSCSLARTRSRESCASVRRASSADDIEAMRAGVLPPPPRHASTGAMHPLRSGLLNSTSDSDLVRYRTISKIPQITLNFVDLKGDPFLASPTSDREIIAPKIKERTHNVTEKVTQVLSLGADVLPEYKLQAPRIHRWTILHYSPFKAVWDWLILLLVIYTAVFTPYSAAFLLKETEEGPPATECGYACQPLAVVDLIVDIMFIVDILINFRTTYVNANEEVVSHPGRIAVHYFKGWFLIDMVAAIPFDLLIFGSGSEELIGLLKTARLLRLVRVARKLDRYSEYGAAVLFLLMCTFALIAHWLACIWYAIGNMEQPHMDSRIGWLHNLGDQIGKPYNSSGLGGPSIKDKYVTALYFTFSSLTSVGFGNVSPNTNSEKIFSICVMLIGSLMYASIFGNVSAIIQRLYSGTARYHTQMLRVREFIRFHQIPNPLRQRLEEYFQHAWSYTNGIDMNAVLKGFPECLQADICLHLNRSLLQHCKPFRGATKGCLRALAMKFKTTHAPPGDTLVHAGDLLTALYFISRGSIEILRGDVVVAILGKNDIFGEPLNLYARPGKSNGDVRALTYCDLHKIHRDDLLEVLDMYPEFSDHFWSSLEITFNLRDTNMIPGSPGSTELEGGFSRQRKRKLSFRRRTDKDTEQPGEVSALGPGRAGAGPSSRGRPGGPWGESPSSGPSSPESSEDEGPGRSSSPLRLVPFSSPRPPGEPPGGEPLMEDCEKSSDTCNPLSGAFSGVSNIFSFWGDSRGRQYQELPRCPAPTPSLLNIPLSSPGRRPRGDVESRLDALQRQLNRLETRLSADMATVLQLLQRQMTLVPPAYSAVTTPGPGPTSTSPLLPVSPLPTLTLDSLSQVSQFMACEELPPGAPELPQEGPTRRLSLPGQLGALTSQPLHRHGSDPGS
Details: not given
For orientation: Polarisation of emitted light reports the rotation of a fluorescent probe.
What is called pIC50 is the negative decadic logarithm of the IC50, by convention in mol/L. Higher therefore signals a small IC50. `COc1ccccc1S(=O)(=O)/C=C/c1ccccc1Cl` showed a pIC50 of 4.92.

System in a further data set: not listed separately
The data set can be described thus: Cytotoxicity against mouse BV-2 cells assessed cell viability at 10 uM measured after 6 hrs by Ez-cytox reagent based assay relative to control. The following applies: read-out: Activity.
As for `COc1ccccc1S(=O)(=O)/C=C/c1ccccc1Cl`, the viability at 6 h, 10 µM amounted to 90.1%.

System in a further data set: not listed separately
The data set can be described thus: Stability in human plasma assessed as parent compound remaining after 30 mins by LC-MS/MS analysis. The following applies: read-out: Stabilty. Type of data set: ADME, cell-free.
Take `COc1ccccc1S(=O)(=O)/C=C/c1ccccc1Cl`: the remaining at 0.5 h stood at 86.1%.
